Results on 1 molecule are retold here after patent US6610763B1, “Polymer composition, the production and further processing thereof into receptacles” (priority 1998, dated 2003).

Data set [1] is described as follows: saturation concentration in water. Format: physicochemical. The following applies: room temperature.
For data set [2] the following is noted: in vivo; cited from earlier work.
Data set [3] relates to Klebsiella pneumoni (ATCC 4352) and Staphylococcus aureus (ATCC 6538). Put plainly: inhibiting zone test on agar plates. The data set is classed as cell-based. Conditions: various concentrations on 6-mm filter disks, approximately 16 hours of incubation on agar plates, FIG. 1. The procedure:
For purposes of determining the concentration by means of the inhibiting zone tests, Klebsiella pneumoni (ATCC 4352) and Staphylococcus aureus (ATCC 6538) were bred on casein soy-meal broth (CM, oxoid), then plated out onto casein-peptone soy-meal agar (CM 131, oxoid) and incubated at 37° C. [98.6° F.]. Up to 50 μl of Irgasan DP 300 were applied onto 6-mm filter disks.
For this purpose, first of all, a test was drawn up that makes it possible to quantitatively detect the anti-microbial effect of test specimens containing 0.2% Irgasan DP 300 and Irgasan DP 300 as a pure substance. In order to examine the migration of the additive and the sensitivity of various test germs, an inhibiting zone test was conducted: test specimens were incubated on agar plates that had been inoculated with these germs. As indicators, two microorganisms were employed whose minimum inhibiting concentration (MIC) with respect to Irgasan DP 300 was between 0.01 ppm and 0.3 ppm, according to information provided by the manufacturer. The kinetics of the release of active ingredient into an aqueous solution were examined by incubating test specimens in a defined volume and by subsequently evaluating them with a spectroscope as well as in the inhibiting zone test. Both methods were calibrated by means of parallel batches with the pure substance. […]

SMILES strings stand for the structures.

Take `Oc1cc(Cl)ccc1Oc1ccc(Cl)cc1Cl` [Irgasan DP 300, 2,4,4′-trichloro-2′-hydroxydiphenyl ether]: in data set [1], the “saturation concentration in water” value is “about 10 ppm”. In data set [2], the “accumulation in the body” value is listed as “does not accumulate in the body” and the “toxicity in view of LD50 value” is reported as “practically non-toxic”. For the same molecule, the “microbial growth in inhibiting zones” value in data set [3] is “do not exhibit any microbial growth”.
